Patent US4639433A, “Glycopeptide derivatives” (Eli Lilly and Company, priority 1985, dated 1987)
Converted amounts (≈) assume the structure as drawn.

How the values were obtained:
Conditions in all cases: agar dilution
[1] = test system: Staphylococcus aureus NRRL B313
[2] = test system: Staphylococcus aureus V41
[3] = test system: Staphylococcus aureus X400
[4] = test system: Staphylococcus aureus S13E
[5] = test system: Staphylococcus epidermidis EPI1
[6] = test system: Staphylococcus epidermidis 222
[7] = test system: Streptococcus pyogenes C203
[8] = test system: Streptococcus pneumoniae Park 1
[9] = test system: Streptococcus faecium ATCC 9790
[10] = test system: Streptococcus sp. group D 2041
[11] = test system: Haemophilus influenzae C.L.
[12] = test system: Haemophilus influenzae 76
Escherichia coli N10 = test system: Escherichia coli N10
Escherichia coli EC14 = test system: Escherichia coli EC14
Escherichia coli TEM = test system: Escherichia coli TEM
[13] = test system: Klebsiella pneumoniae X26
[14] = test system: Klebsiella pneumoniae X68
[15] = test system: Klebsiella pneumoniae KAE

CNC(CC(C)C)C(=O)NC1C(=O)NC(CC(N)=O)C(=O)NC2C(=O)NC3C(=O)NC(C(=O)NC(C(=O)O)c4cc(O)cc(O)c4-c4cc3ccc4O)C(O)c3ccc(c(Cl)c3)Oc3cc2cc(c3OC2OC(CO)C(O)C(O)C2OC2CC(C)(NC(=O)C(N)C(C)C)C(O)C(C)O2)Oc2ccc(cc2Cl)C1O (stereo not drawn) [Compound 33, N^van --(2-amino-1-oxo-isopentyl)vancomycin]
MIC [1]: 8 µg/mL (≈ 5.17 µM) | MIC [2]: 8 µg/mL (≈ 5.17 µM) | MIC [3]: 32 µg/mL (≈ 20.7 µM) | MIC [4]: 8 µg/mL (≈ 5.17 µM) | MIC [5]: 32 µg/mL (≈ 20.7 µM) | MIC [6]: 32 µg/mL (≈ 20.7 µM) | MIC [7]: 8 µg/mL (≈ 5.17 µM) | MIC [8]: 8 µg/mL (≈ 5.17 µM) | MIC [9]: 8 µg/mL (≈ 5.17 µM) | MIC [10]: 32 µg/mL (≈ 20.7 µM) | MIC [11]: -- (not active at 128 mcg/ml) | MIC [12]: -- (not active at 128 mcg/ml) | MIC (Escherichia coli N10): -- (not active at 128 mcg/ml) | MIC (Escherichia coli EC14): -- (not active at 128 mcg/ml) | MIC (Escherichia coli TEM): -- (not active at 128 mcg/ml) | MIC [13]: -- (not active at 128 mcg/ml) | MIC [14]: -- (not active at 128 mcg/ml) | MIC [15]: -- (not active at 128 mcg/ml)

CNC(CC(C)C)C(=O)NC1C(=O)NC(CC(N)=O)C(=O)NC2C(=O)NC3C(=O)NC(C(=O)NC(C(=O)O)c4cc(O)cc(O)c4-c4cc3ccc4O)C(O)c3ccc(c(Cl)c3)Oc3cc2cc(c3OC2OC(CO)C(O)C(O)C2OC2CC(C)(NC(=O)CC(C)C)C(O)C(C)O2)Oc2ccc(cc2Cl)C1O (stereo not drawn) [Compound 34, N^van --(1-oxo-isopentyl)vancomycin]
MIC [1]: 2 µg/mL (≈ 1.3 µM) | MIC [2]: 2 µg/mL (≈ 1.3 µM) | MIC [3]: 2 µg/mL (≈ 1.3 µM) | MIC [4]: 2 µg/mL (≈ 1.3 µM) | MIC [5]: 8 µg/mL (≈ 5.22 µM) | MIC [6]: 4 µg/mL (≈ 2.61 µM) | MIC [7]: 1 µg/mL (≈ 0.652 µM) | MIC [8]: 1 µg/mL (≈ 0.652 µM) | MIC [9]: 2 µg/mL (≈ 1.3 µM) | MIC [10]: 8 µg/mL (≈ 5.22 µM) | MIC [11]: -- (not active at 128 mcg/ml) | MIC [12]: -- (not active at 128 mcg/ml) | MIC (Escherichia coli N10): -- (not active at 128 mcg/ml) | MIC (Escherichia coli EC14): -- (not active at 128 mcg/ml) | MIC (Escherichia coli TEM): -- (not active at 128 mcg/ml) | MIC [13]: -- (not active at 128 mcg/ml) | MIC [14]: -- (not active at 128 mcg/ml) | MIC [15]: -- (not active at 128 mcg/ml)

CCCCCCCC(=O)NC1(C)CC(OC2C(Oc3c4cc5cc3Oc3ccc(cc3Cl)C(O)C(NC(=O)C(CC(C)C)N(C)C(=O)CCCCCCC)C(=O)NC(CC(N)=O)C(=O)NC5C(=O)NC3C(=O)NC(C(=O)NC(C(=O)O)c5cc(O)cc(O)c5-c5cc3ccc5O)C(O)c3ccc(c(Cl)c3)O4)OC(CO)C(O)C2O)OC(C)C1O (stereo not drawn) [Compound 5, N^van,N^leu --di(1-oxo-n-octyl)vancomycin]
MIC [1]: 32 µg/mL (≈ 18.8 µM) | MIC [2]: 32 µg/mL (≈ 18.8 µM) | MIC [3]: 32 µg/mL (≈ 18.8 µM) | MIC [4]: 32 µg/mL (≈ 18.8 µM) | MIC [5]: -- (not active at 128 mcg/ml) | MIC [6]: 64 µg/mL (≈ 37.6 µM) | MIC [7]: 32 µg/mL (≈ 18.8 µM) | MIC [8]: 32 µg/mL (≈ 18.8 µM) | MIC [9]: 32 µg/mL (≈ 18.8 µM) | MIC [10]: 32 µg/mL (≈ 18.8 µM) | MIC [11]: -- (not active at 128 mcg/ml) | MIC [12]: -- (not active at 128 mcg/ml) | MIC (Escherichia coli N10): -- (not active at 128 mcg/ml) | MIC (Escherichia coli EC14): -- (not active at 128 mcg/ml) | MIC (Escherichia coli TEM): -- (not active at 128 mcg/ml) | MIC [13]: -- (not active at 128 mcg/ml) | MIC [14]: -- (not active at 128 mcg/ml) | MIC [15]: -- (not active at 128 mcg/ml)

CCCCCCCCCC(=O)NC1(C)CC(OC2C(Oc3c4cc5cc3Oc3ccc(cc3Cl)C(O)C(NC(=O)C(CC(C)C)N(C)C(=O)CCCCCCCCC)C(=O)NC(CC(N)=O)C(=O)NC5C(=O)NC3C(=O)NC(C(=O)NC(C(=O)O)c5cc(O)cc(O)c5-c5cc3ccc5O)C(O)c3ccc(c(Cl)c3)O4)OC(CO)C(O)C2O)OC(C)C1O (stereo not drawn) [Compound 8, N^van,N^leu-di(1-oxo-n-decyl)vancomycin]
MIC [1]: 2 µg/mL (≈ 1.14 µM) | MIC [2]: 4 µg/mL (≈ 2.28 µM) | MIC [3]: 4 µg/mL (≈ 2.28 µM) | MIC [4]: 8 µg/mL (≈ 4.55 µM) | MIC [5]: 32 µg/mL (≈ 18.2 µM) | MIC [6]: 8 µg/mL (≈ 4.55 µM) | MIC [7]: 4 µg/mL (≈ 2.28 µM) | MIC [8]: 16 µg/mL (≈ 9.1 µM) | MIC [9]: 8 µg/mL (≈ 4.55 µM) | MIC [10]: 8 µg/mL (≈ 4.55 µM) | MIC [11]: -- (not active at 128 mcg/ml) | MIC [12]: -- (not active at 128 mcg/ml) | MIC (Escherichia coli N10): -- (not active at 128 mcg/ml) | MIC (Escherichia coli EC14): -- (not active at 128 mcg/ml) | MIC (Escherichia coli TEM): -- (not active at 128 mcg/ml) | MIC [13]: -- (not active at 128 mcg/ml) | MIC [14]: -- (not active at 128 mcg/ml) | MIC [15]: -- (not active at 128 mcg/ml)

CNC(CC(C)C)C(=O)NC1C(=O)NC(CC(N)=O)C(=O)NC2C(=O)NC3C(=O)NC(C(=O)NC(C(=O)O)c4cc(O)cc(O)c4-c4cc3ccc4O)C(O)c3ccc(c(Cl)c3)Oc3cc2cc(c3OC2OC(CO)C(O)C(O)C2OC2CC(C)(NC(=O)CCCCCBr)C(O)C(C)O2)Oc2ccc(cc2Cl)C1O (stereo not drawn) [Compound 35, N^van --(6-bromo-n-hexyl)vancomycin]
MIC [1]: 2 µg/mL (≈ 1.23 µM) | MIC [2]: 2 µg/mL (≈ 1.23 µM) | MIC [3]: 4 µg/mL (≈ 2.46 µM) | MIC [4]: 2 µg/mL (≈ 1.23 µM) | MIC [5]: 8 µg/mL (≈ 4.92 µM) | MIC [6]: 4 µg/mL (≈ 2.46 µM) | MIC [7]: 2 µg/mL (≈ 1.23 µM) | MIC [8]: 1 µg/mL (≈ 0.615 µM) | MIC [9]: 2 µg/mL (≈ 1.23 µM) | MIC [10]: 8 µg/mL (≈ 4.92 µM) | MIC [11]: -- (not active at 128 mcg/ml) | MIC [12]: -- (not active at 128 mcg/ml) | MIC (Escherichia coli N10): -- (not active at 128 mcg/ml) | MIC (Escherichia coli EC14): -- (not active at 128 mcg/ml) | MIC (Escherichia coli TEM): -- (not active at 128 mcg/ml) | MIC [13]: -- (not active at 128 mcg/ml) | MIC [14]: -- (not active at 128 mcg/ml) | MIC [15]: -- (not active at 128 mcg/ml)

C=CCCCCCCCCC(=O)NC1(C)CC(OC2C(Oc3c4cc5cc3Oc3ccc(cc3Cl)C(O)C(NC(=O)C(CC(C)C)N(C)C(=O)CCCCCCCCC=C)C(=O)NC(CC(N)=O)C(=O)NC5C(=O)NC3C(=O)NC(C(=O)NC(C(=O)O)c5cc(O)cc(O)c5-c5cc3ccc5O)C(O)c3ccc(c(Cl)c3)O4)OC(CO)C(O)C2O)OC(C)C1O (stereo not drawn) [Compound 11, N^van,N^leu --(1-oxo-10-n-decenyl)vancomycin]
MIC [1]: 8 µg/mL (≈ 4.49 µM) | MIC [2]: 8 µg/mL (≈ 4.49 µM) | MIC [3]: 16 µg/mL (≈ 8.98 µM) | MIC [4]: 8 µg/mL (≈ 4.49 µM) | MIC [5]: 64 µg/mL (≈ 35.9 µM) | MIC [6]: 16 µg/mL (≈ 8.98 µM) | MIC [7]: 2 µg/mL (≈ 1.12 µM) | MIC [8]: 4 µg/mL (≈ 2.24 µM) | MIC [9]: 8 µg/mL (≈ 4.49 µM) | MIC [10]: 16 µg/mL (≈ 8.98 µM) | MIC [11]: 32 µg/mL (≈ 18 µM) | MIC [12]: 32 µg/mL (≈ 18 µM) | MIC (Escherichia coli N10): 128 µg/mL (≈ 71.8 µM) | MIC (Escherichia coli EC14): 128 µg/mL (≈ 71.8 µM) | MIC (Escherichia coli TEM): 64 µg/mL (≈ 35.9 µM) | MIC [13]: 128 µg/mL (≈ 71.8 µM) | MIC [14]: 128 µg/mL (≈ 71.8 µM) | MIC [15]: 128 µg/mL (≈ 71.8 µM)

C=CCCCCCCCCC(=O)N(C)C(CC(C)C)C(=O)NC1C(=O)NC(CC(N)=O)C(=O)NC2C(=O)NC3C(=O)NC(C(=O)NC(C(=O)O)c4cc(O)cc(O)c4-c4cc3ccc4O)C(O)c3ccc(c(Cl)c3)Oc3cc2cc(c3OC2OC(CO)C(O)C(O)C2OC2CC(C)(N)C(O)C(C)O2)Oc2ccc(cc2Cl)C1O (stereo not drawn) [Compound 10, N^leu --(1-oxo-10-n-decenyl)vancomycin]
MIC [1]: 4 µg/mL (≈ 2.48 µM) | MIC [2]: 4 µg/mL (≈ 2.48 µM) | MIC [3]: 4 µg/mL (≈ 2.48 µM) | MIC [4]: 4 µg/mL (≈ 2.48 µM) | MIC [5]: 32 µg/mL (≈ 19.8 µM) | MIC [6]: 8 µg/mL (≈ 4.95 µM) | MIC [7]: 1 µg/mL (≈ 0.619 µM) | MIC [8]: 2 µg/mL (≈ 1.24 µM) | MIC [9]: 2 µg/mL (≈ 1.24 µM) | MIC [10]: 4 µg/mL (≈ 2.48 µM) | MIC [11]: -- (not active at 128 mcg/ml) | MIC [12]: -- (not active at 128 mcg/ml) | MIC (Escherichia coli N10): -- (not active at 128 mcg/ml) | MIC (Escherichia coli EC14): -- (not active at 128 mcg/ml) | MIC (Escherichia coli TEM): -- (not active at 128 mcg/ml) | MIC [13]: -- (not active at 128 mcg/ml) | MIC [14]: -- (not active at 128 mcg/ml) | MIC [15]: -- (not active at 128 mcg/ml)

CCC(CC)C(=O)NC1(C)CC(OC2C(Oc3c4cc5cc3Oc3ccc(cc3Cl)C(O)C3NC(=O)C(NC(=O)C5NC(=O)C(CC(N)=O)NC(=O)C(NC(=O)C(CC(C)C)NC)C(O)c5ccc(c(Cl)c5)O4)c4ccc(O)c(c4)-c4c(O)cc(O)cc4C(C(=O)O)NC3=O)OC(CO)C(O)C2O)OC(C)C1O (stereo not drawn) [Compound 22, N^van --(2-ethyl-1-oxo-n-butyl)vancomycin]
MIC [1]: 2 µg/mL (≈ 1.29 µM) | MIC [2]: 2 µg/mL (≈ 1.29 µM) | MIC [3]: 2 µg/mL (≈ 1.29 µM) | MIC [4]: 2 µg/mL (≈ 1.29 µM) | MIC [5]: 8 µg/mL (≈ 5.17 µM) | MIC [6]: 2 µg/mL (≈ 1.29 µM) | MIC [7]: 2 µg/mL (≈ 1.29 µM) | MIC [8]: 2 µg/mL (≈ 1.29 µM) | MIC [9]: 2 µg/mL (≈ 1.29 µM) | MIC [10]: 8 µg/mL (≈ 5.17 µM) | MIC [11]: 128 µg/mL (≈ 82.7 µM) | MIC [12]: 128 µg/mL (≈ 82.7 µM) | MIC (Escherichia coli N10): -- (not active at 128 mcg/ml) | MIC (Escherichia coli EC14): -- (not active at 128 mcg/ml) | MIC (Escherichia coli TEM): -- (not active at 128 mcg/ml) | MIC [13]: -- (not active at 128 mcg/ml) | MIC [14]: -- (not active at 128 mcg/ml) | MIC [15]: -- (not active at 128 mcg/ml)
